Reference: US8962639B2, “Potassium channel modulators” (AbbVie Inc., priority 2009, dated 2015)
pEC50: −log10 of the molar value.

Target: T1, human KCNQ2 and KCNQ3 (Homo sapiens, UniProt O43525+O43526)
T1 construct: expressed in transfected cells; host or cells: HEK293
Assay: KCNQ 2/3 channel activation, thallium flux FLIPR assay (BTC-AM dye) in HEK293 cells
Assay type: cell-based
Conditions: for Emax: HEK293, maximum response relative to response of retigabine at 10 μM set at 100%, read-out: Max response; for pEC50: HEK293 cells stably expressing human KCNQ2 and KCNQ3, compound incubated 4 minutes, Tl+ flux fluorescence
Description: The following example describes the assay that can be used to identify compounds that activate KCNQ 2/3 channels.
HEK293 cells stably expressing human KCNQ2 and KCNQ3 were seeded in 96-well, black-walled, clear-bottomed, poly-D-lysine coated plates (BD Biosciences, Bedford, Mass.) at a density of 1×10^5 cells per well 24 hours before the assay. On the assay day, BTC-AM dye (Invitrogen, Carlsbad, Calif.) was loaded into the cells by replacing the cell culture medium with 100 μL/well of 4 μM dye in DPBS. Dye loading was allowed to proceed for 2 hours at room temperature and then cells were washed twice in 100 μL/well of assay buffer (in mM: 10 HEPES pH 7.3, 5 glucose, 140 Na-gluconate, 2.5 K-gluconate, 3.6 Ca-gluconate, 2 MgSO4, 0.1 Ouabain) to remove unloaded dye. Cells were incubated in 50 μL of assay buffer before loading onto a FLIPR system (Molecular Devices, Sunnyvale, Calif.). Various concentrations of compounds to be assayed were added to the cells in 50 μL of assay buffer and incubated for 4 minutes. The fluorescence signal was initiated by adding 100 μL of assay buffer containing 6 mM TlNO3 and 10 mM K2SO4. Fluors were excited using the 488-nm line of an argon laser and emission was filtered using a 540±30 nm bandpass filter. Fluorescent signals were recorded for 3 minutes. Responses over baseline values were plotted versus concentrations of test compounds to obtain an EC50 value. The maximum response for each test compound was determined relative to the response produced at 10 μM by retigabine. The maximum response of retigabine at 10 μM was set at 100%.

T1 sequence (O43526 whole entry): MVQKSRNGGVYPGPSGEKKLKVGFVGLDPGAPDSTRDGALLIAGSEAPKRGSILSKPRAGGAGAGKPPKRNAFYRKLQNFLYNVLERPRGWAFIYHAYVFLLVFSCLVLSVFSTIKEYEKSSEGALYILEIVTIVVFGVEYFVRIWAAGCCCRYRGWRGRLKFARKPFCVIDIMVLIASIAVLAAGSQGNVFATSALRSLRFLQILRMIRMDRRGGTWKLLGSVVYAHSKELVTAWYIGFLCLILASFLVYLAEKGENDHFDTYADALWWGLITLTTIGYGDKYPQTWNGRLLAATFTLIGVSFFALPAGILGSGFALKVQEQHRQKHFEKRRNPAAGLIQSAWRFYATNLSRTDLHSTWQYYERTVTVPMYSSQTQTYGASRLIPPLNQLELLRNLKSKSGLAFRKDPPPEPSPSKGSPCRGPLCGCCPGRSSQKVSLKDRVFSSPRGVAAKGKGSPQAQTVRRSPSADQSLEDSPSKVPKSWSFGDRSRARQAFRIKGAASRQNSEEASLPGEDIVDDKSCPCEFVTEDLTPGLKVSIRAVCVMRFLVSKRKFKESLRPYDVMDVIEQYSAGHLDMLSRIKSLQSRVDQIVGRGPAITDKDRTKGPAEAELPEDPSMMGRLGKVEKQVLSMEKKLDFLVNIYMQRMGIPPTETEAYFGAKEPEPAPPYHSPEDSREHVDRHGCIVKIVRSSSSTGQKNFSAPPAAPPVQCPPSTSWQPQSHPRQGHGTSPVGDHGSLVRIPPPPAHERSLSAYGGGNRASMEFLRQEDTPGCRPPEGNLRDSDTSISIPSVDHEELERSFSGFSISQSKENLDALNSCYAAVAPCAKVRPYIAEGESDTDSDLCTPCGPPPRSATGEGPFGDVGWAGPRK
T1 sequence (O43525 whole entry): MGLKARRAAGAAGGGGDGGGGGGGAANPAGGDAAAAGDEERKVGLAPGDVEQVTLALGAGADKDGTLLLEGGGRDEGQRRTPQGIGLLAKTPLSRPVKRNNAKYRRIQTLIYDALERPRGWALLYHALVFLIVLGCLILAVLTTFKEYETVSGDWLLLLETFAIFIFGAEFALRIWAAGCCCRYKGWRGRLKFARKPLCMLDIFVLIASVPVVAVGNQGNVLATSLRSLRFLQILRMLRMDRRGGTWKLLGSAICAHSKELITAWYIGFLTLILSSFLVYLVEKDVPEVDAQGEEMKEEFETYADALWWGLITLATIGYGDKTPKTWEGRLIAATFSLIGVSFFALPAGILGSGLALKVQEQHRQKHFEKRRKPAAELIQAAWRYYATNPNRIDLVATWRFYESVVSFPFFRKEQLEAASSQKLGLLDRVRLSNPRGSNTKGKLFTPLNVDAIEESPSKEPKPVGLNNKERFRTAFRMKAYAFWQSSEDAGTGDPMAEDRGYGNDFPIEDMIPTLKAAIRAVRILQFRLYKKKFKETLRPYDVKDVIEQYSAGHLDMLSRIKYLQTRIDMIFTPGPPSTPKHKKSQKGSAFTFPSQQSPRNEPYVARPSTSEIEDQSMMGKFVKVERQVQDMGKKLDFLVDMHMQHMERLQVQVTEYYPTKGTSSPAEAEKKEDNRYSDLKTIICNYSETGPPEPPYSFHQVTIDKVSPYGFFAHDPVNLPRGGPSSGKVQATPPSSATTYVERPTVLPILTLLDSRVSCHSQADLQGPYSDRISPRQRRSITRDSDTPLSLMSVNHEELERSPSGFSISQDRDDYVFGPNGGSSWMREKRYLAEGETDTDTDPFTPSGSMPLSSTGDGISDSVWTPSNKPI

| Emax | pEC50 | Compound |
| --- | --- | --- |
| 5.5% | < 4.50 | CCc1nc2ccccc2c(=O)n1NC(=O)C12CC3CC(CC(C3)O1)C2 [Example 54, N-(2-ethyl-4-oxoquinazolin-3(4H)-yl)-2-oxatricyclo[3.3.1.1^3,7]decane-1-carboxamide] |
| 99.2% | 5.65 | CC(C)c1nc2ccccc2c(=O)n1NC(=O)[C@H]1C[C@@H]2C=C[C@H]1C2 (racemic) [Example 32, (±)-(exo)-N-(2-isopropyl-4-oxoquinazolin-3(4H)-yl)bicyclo[2.2.1]hept-5-ene-2-carboxamide] |
| 139% | 6.36 | CCc1cc2c(=O)n(NC(=O)CC34CC5CC(CC(C5)C3)C4)cnc2s1 [Example 20, 2-(1-adamantyl)-N-(6-ethyl-4-oxothieno[2,3-d]pyrimidin-3(4H)-yl)acetamide] |
| 20.8% | < 4.52 | Cc1nc2cc(Cl)ccc2c(=O)n1NC(=O)CC12CC3CC(CC(C3)C1)C2 [Example 35, 2-(1-adamantyl)-N-(7-chloro-2-methyl-4-oxoquinazolin-3(4H)-yl)acetamide] |
| 158% | 5.95 | CCc1nc2sccc2c(=O)n1NC(=O)CC1CC2CCC1C2 (racemic) [Example 24, (±)-exo-2-bicyclo[2.2.1]hept-2-yl-N-(2-ethyl-4-oxothieno[2,3-d]pyrimidin-3(4H)-yl)acetamide] |
| 133% | 6.94 | O=C(CC12CC3CC(CC(C3)C1)C2)Nn1cnc2ccccc2c1=O [Example 7, 2-(1-adamantyl)-N-(4-oxoquinazolin-3(4H)-yl)acetamide] |
| 145% | 7.51 | O=C(C[C@H]1C[C@@H]2CC[C@H]1C2)Nn1c(C2CC2)nc2cc(F)ccc2c1=O (racemic) [Example 61, (±)-2-[(exo)-bicyclo[2.2.1]hept-2-yl]-N-(2-cyclopropyl-7-fluoro-4-oxoquinazolin-3(4H)-yl)acetamide] |
| 199% | 6.07 | O=C(CC12CC3CC(CC(C3)C1)C2)Nn1cnc2scc(-c3ccc(F)cc3)c2c1=O [Example 27, 2-(1-adamantyl)-N-[5-(4-fluorophenyl)-4-oxothieno[2,3-d]pyrimidin-3(4H)-yl]acetamide] |
| 65.4% | 6.08 | O=C(Nn1c(-c2ccccc2)nc2ccccc2c1=O)[C@@H]1C[C@@H]2C=C[C@H]1C2 (racemic) [Example 33, (±)-(endo)-N-(4-oxo-2-phenylquinazolin-3(4H)-yl)bicyclo[2.2.1]hept-5-ene-2-carboxamide] |
| 122% | 6.83 | CC(C)c1nc2ccccc2c(=O)n1NC(=O)CC12CC3CC(CC(C3)C1)C2 [Example 5, 2-(1-adamantyl)-N-(2-isopropyl-4-oxoquinazolin-3(4H)-yl)acetamide] |
| 32.1% | 6.58 | O=C(CC12CC3CC(CC(C3)C1)C2)Nn1cnc2ccc(Cl)cc2c1=O [Example 16, 2-(1-adamantyl)-N-(6-chloro-4-oxoquinazolin-3(4H)-yl)acetamide] |
| 4.46% | 4.76 | O=C(Nn1c(-c2ccccc2)nc2ccccc2c1=O)[C@H]1C[C@@H]2C=C[C@H]1C2 (racemic) [Example 34, (±)-(exo)-N-(4-oxo-2-phenylquinazolin-3(4 H)-yl)bicyclo[2.2.1]hept-5-ene-2-carboxamide] |
| 152% | 6.80 | O=C(CC12CC3CC(CC(Cl)(C3)C1)C2)Nn1c(C2CC2)nc2ccccc2c1=O [Example 51, 2-[3-chloro-1-adamantyl]-N-(2-cyclopropyl-4-oxoquinazolin-3(4H)-yl)acetamide] |
| 116% | 6.60 | O=C(CC12CC3CC(CC(Cl)(C3)C1)C2)Nn1c(C2CC2)nc2cc(F)ccc2c1=O [Example 53] |
| 11.6% | < 4.50 | CCc1nc2ccccc2c(=O)n1NC(=O)[C@@H]1[C@H]2[C@@H]3CC[C@@H](C3)[C@@H]12 [Example 58, (exo,exo)-N-(2-ethyl-4-oxoquinazolin-3(4H)-yl)tricyclo[3.2.1.0^2,4]octane-3-carboxamide] |
| 9.51% | < 4.52 | O=C(CC12CC3CC(CC(C3)C1)C2)Nn1cnc2sc(-c3ccccc3)cc2c1=O [Example 37, 2-(1-adamantyl)-N-(4-oxo-6-phenylthieno[2,3-d]pyrimidin-3(4H)-yl)acetamide] |
| 93.3% | 5.76 | O=C(CC12CC3CC(CC(C3)C1)C2)Nn1c(=O)[nH]c2ccccc2c1=O [Example 28, 2-(1-adamantyl)-N-(2,4-dioxo-1,4-dihydroquinazolin-3(2H)-yl)acetamide] |

| Emax | pEC50 | Compound |
| --- | --- | --- |
| 88.8% | 6.86 | CC(C)c1nc2ccccc2c(=O)n1NC(=O)CC1C2CC3CC(C2)CC1C3 (centres unmarked) [Example 1, 2-(2-adamantyl)-N-(2-isopropyl-4-oxoquinazolin-3(4H)-yl)acetamide] |
| 140% | 6.38 | CC(C)c1nc2ccccc2c(=O)n1NC(=O)[C@@H]1C[C@@H]2C=C[C@H]1C2 (racemic) [Example 31, (±)-(endo)-N-(2-isopropyl-4-oxoquinazolin-3(4H)-yl)bicyclo[2.2.1]hept-5-ene-2-carboxamide] |
| 124% | 6.94 | CCc1nc2ccccc2c(=O)n1NC(=O)CC12CC3CC(CC(C3)C1)C2 [Example 9, 2-(1-adamantyl)-N-(2-ethyl-4-oxoquinazolin-3(4H)-yl)acetamide] |
| 163% | 6.13 | CC(C)c1nc2ccccc2c(=O)n1NC(=O)CC1CC2C=CC1C2 (racemic) [Example 18, (±)-endo-2-bicyclo[2.2.1]hept-5-en-2-yl-N-(2-isopropyl-4-oxoquinazolin-3(4H)-yl)acetamide] |
| 140% | 5.57 | O=C(CC12CC3CC(CC(C3)C1)C2)Nn1cnc2ccsc2c1=O [Example 26, 2-(1-adamantyl)-N-(4-oxothieno[3,2-d]pyrimidin-3(4H)-yl)acetamide] |
| 136% | 7.78 | CC(C)c1nc2ccccc2c(=O)n1NC(=O)CC1CC2CCC1C2 (single isomer, unassigned; (-)) [Example 29, (−)-exo-2-[bicyclo[2.2.1]hept-2-yl]-N-(2-isopropyl-4-oxoquinazolin-3(4H)-yl)acetamide] |
| 79.7% | 6.51 | O=C(CCC12CC3CC(CC(C3)C1)C2)Nn1c(-c2ccccc2)nc2ccccc2c1=O [Example 15, 3-(1-adamantyl)-N-(4-oxo-2-phenylquinazolin-3(4H)-yl)propanamide] |
| 148% | 6.46 | CCc1nc2ccccc2c(=O)n1NC(=O)CC1C2CCCC1CCC2 (centres unmarked) [Example 57, 2-bicyclo[3.3.1]non-9-yl-N-(2-ethyl-4-oxoquinazolin-3(4H)-yl)acetamide] |
| 140% | 6.70 | O=C(Cc1ccc(Cl)cc1)Nn1c(C23CC4CC(CC2C4)C3)nc2ccccc2c1=O [Example 2, 2-(4-chlorophenyl)-N-(2-hexahydro-2,5-methanopentalen-3a(1H)-yl-4-oxoquinazolin-3(4H)-yl)acetamide] |
| 60.4% | 5.57 | CC(=O)Nn1c(C23CC4CC(CC2C4)C3)nc2ccccc2c1=O [Example 4, N-(2-hexahydro-2,5-methanopentalen-3a(1H)-yl-4-oxoquinazolin-3(4H)-yl)acetamide] |
| 108% | 6.16 | Cc1nc2ccccc2c(=O)n1NC(=O)CC12CC3CC(CC(C3)C1)C2 [Example 8, 2-(1-adamantyl)-N-(2-methyl-4-oxoquinazolin-3(4H)-yl)acetamide] |
| 132% | 6.39 | CC(C)c1nc2ccccc2c(=O)n1NC(=O)CC12CC3CC(CC(Cl)(C3)C1)C2 [Example 21, 2-[3-chloro-1-adamantyl]-N-(2-isopropyl-4-oxoquinazolin-3(4H)-yl)acetamide] |
| 131% | 5.31 | O=C(CC1CC2CCC1C2)Nn1cnc2ccccc2c1=O (racemic) [Example 10, (±)-exo-2-bicyclo[2.2.1]hept-2-yl-N-(4-oxoquinazolin-3(4H)-yl)acetamide] |
| 118% | 5.52 | O=C(CC12CC3CC(CC(C3)C1)C2)Nn1c(COc2ccccc2)nc2ccccc2c1=O [Example 25, 2-(1-adamantyl)-N-[4-oxo-2-(phenoxymethyl)quinazolin-3(4H)-yl]acetamide] |
| 158% | 6.98 | CC(C)c1nc2ccccc2c(=O)n1NC(=O)CC1C2CCCC1CCC2 (centres unmarked) [Example 56, 2-bicyclo[3.3.1]non-9-yl-N-(2-isopropyl-4-oxoquinazolin-3(4H)-yl)acetamide] |
| 130% | 6.34 | Cc1sc2nc(C)n(NC(=O)CC34CC5CC(CC(C5)C3)C4)c(=O)c2c1-c1ccccc1 [Example 46, 2-(1-adamantyl)-N-(2,6-dimethyl-4-oxo-5-phenylthieno[2,3-d]pyrimidin-3(4H)-yl)acetamide] |
| 17% | < 4.52 | CC(C)c1nc2cc(-c3ccccc3F)sc2c(=O)n1NC(=O)CC1CC2CCC1C2 (racemic) [Example 41, (±)-2-[(exo)-bicyclo[2.2.1]hept-2-yl]-N-[6-(2-fluorophenyl)-2-isopropyl-4-oxothieno[3,2-d]pyrimidin-3(4H)-yl]acetamide] |
